Data on 4 molecules can be found in ChEMBL document CHEMBL4330176, “Imidazoquinolines as Novel Inhibitors of LRRK2 Kinase Activity” (ACS Med Chem Lett, 2019).

Broadly, the IC50 is the concentration at which inhibition is half-maximal.

In experiment [1] the target is Leucine-rich repeat serine/threonine-protein kinase 2 (Homo sapiens, UniProt Q5S007, G2019S). The experiment can be described thus: Inhibition of GST-tagged LRRK2 G2019S mutant (unknown origin) expressed in baculovirus expression system using fluorescein-labeled LRRKtide as substrate after 30 mins by Lanthascreen assay. (In general: In TR-FRET formats the signal depends on donor and acceptor labels being close together.)

Experiment [2] has as its target Leucine-rich repeat serine/threonine-protein kinase 2 (Homo sapiens, UniProt Q5S007). The experiment can be described thus: Inhibition of recombinant wild-type GST-tagged LRRK2 (unknown origin) expressed in baculovirus expression system using fluorescein-labeled LRRKtide as substrate after 30 mins by Lanthascreen assay.

Chain of Leucine-rich repeat serine/threonine-protein kinase 2 (Homo sapiens, UniProt Q5S007, G2019S) (Q5S007 whole entry G2019S): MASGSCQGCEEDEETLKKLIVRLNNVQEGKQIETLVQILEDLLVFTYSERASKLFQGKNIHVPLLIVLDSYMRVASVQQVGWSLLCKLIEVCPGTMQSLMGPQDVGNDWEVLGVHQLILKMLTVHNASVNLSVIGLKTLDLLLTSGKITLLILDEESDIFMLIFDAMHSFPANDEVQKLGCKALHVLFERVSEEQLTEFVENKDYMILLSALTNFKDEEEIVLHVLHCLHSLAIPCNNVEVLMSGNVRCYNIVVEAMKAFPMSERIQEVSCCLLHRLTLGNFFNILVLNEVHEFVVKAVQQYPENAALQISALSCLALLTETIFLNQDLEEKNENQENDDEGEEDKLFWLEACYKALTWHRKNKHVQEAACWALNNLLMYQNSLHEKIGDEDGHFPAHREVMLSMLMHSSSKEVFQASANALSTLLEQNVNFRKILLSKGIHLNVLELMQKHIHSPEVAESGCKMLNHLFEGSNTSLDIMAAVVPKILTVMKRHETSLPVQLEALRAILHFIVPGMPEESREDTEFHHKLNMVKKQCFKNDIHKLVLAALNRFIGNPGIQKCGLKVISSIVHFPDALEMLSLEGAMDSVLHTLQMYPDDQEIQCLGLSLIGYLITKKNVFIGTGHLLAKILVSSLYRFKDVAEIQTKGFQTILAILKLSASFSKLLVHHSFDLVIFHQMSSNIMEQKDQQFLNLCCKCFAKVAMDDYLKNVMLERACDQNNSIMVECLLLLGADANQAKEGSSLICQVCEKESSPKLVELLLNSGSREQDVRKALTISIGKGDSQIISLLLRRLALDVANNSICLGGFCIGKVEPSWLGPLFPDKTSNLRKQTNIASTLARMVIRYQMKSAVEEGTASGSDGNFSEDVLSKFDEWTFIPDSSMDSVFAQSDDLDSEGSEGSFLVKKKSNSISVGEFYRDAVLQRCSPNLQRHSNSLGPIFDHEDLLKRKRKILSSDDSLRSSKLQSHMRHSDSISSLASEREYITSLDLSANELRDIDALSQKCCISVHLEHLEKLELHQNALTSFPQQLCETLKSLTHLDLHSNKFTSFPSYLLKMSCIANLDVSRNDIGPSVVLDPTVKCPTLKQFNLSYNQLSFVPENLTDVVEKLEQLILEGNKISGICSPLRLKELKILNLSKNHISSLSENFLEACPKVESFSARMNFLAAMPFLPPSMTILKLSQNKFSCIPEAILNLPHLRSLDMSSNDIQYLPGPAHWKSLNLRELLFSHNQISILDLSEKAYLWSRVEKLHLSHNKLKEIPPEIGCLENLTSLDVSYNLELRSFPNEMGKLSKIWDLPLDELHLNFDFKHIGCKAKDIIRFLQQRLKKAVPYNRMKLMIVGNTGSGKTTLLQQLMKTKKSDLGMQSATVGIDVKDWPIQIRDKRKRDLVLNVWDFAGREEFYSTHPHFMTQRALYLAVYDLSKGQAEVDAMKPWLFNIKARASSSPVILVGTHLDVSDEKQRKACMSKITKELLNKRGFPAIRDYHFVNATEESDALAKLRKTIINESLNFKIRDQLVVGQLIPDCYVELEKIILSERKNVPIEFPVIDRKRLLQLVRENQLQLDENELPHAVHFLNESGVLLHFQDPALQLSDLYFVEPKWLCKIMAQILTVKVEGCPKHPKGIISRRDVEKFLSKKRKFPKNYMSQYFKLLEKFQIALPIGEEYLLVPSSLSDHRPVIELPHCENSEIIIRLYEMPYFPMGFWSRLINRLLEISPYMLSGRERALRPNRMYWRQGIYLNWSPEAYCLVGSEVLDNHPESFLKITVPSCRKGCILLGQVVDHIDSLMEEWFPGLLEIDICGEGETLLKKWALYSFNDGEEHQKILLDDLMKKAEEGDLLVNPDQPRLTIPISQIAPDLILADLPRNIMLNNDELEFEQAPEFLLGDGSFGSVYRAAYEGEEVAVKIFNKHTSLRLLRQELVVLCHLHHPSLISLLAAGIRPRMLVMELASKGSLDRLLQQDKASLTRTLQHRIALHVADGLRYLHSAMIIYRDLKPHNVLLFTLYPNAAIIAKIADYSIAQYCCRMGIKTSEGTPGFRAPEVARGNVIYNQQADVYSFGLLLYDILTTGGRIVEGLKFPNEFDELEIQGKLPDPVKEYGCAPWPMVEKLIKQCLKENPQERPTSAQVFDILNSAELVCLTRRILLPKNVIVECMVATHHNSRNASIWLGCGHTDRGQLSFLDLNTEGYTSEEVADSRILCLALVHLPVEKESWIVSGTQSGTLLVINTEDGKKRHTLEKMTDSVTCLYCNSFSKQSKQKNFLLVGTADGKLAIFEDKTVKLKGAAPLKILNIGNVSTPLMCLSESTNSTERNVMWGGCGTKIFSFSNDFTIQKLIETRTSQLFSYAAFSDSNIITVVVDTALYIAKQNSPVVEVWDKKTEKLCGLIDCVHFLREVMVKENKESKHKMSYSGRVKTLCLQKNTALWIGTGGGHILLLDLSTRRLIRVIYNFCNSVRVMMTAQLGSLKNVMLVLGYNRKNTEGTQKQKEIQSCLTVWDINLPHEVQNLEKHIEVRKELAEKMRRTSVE
Chain of Leucine-rich repeat serine/threonine-protein kinase 2 (Homo sapiens, UniProt Q5S007) (Q5S007 whole entry): as the sequence (Q5S007 whole entry G2019S) above, with S2019G counted along it

In turn, `CCc1nc2cnc3ccc(Cl)cc3c2n1[C@@H]1CCO[C@H](CC#N)C1` showed an IC50 in experiment [1] of 8.7 nM. `Cc1nc(Cc2nc3cnc4ccc(C(F)(F)F)cc4c3n2[C@@H]2CCOCC2(F)F)no1`: the IC50 came to 25.7 nM in experiment [2] and 26.5 nM in experiment [1]. In the same order, the values of `N#Cc1ccc2ncc3nc(Cc4csnn4)n([C@@H]4CC[C@H](F)C4)c3c2c1` (relative stereo) are 9.73 nM and 9.75 nM. The molecule `[2H]C([2H])([2H])c1cnc(Cc2nc3cnc4ccc(Cl)cc4c3n2[C@@H]2CCO[C@H](C)C2)cn1` registered an IC50 in experiment [1] of 2.16 nM.
